For experiment [1], the target named is T1, 5-hydroxytryptamine receptor 2A (Homo sapiens, UniProt P28223). Kind of experiment: Displacement of [3H]ketanserin from human cloned 5HT2A receptor.
Experiment [2] addresses T2, 5-hydroxytryptamine receptor 2C (Homo sapiens, UniProt P28335).
T2 sequence (P28335 whole entry): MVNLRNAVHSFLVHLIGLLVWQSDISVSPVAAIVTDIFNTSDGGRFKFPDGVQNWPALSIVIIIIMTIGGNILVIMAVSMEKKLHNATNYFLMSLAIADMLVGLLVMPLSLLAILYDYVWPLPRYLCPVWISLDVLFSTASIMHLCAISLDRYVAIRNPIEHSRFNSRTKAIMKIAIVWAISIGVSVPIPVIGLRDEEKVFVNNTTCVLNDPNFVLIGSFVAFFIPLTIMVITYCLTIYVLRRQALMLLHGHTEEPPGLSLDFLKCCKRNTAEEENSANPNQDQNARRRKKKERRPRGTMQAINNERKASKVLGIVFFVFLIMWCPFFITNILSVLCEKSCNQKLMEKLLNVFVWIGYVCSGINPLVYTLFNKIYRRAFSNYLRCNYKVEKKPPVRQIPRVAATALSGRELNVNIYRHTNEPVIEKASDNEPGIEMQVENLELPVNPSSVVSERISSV
In words: Displacement of [3H]mesulergine from human cloned 5HT2C receptor.

The target in experiment [3] is T1, 5-hydroxytryptamine receptor 2A. In words: Antagonist activity at human cloned 5HT2A receptor. The format is functional.

T1 sequence (P28223 whole entry): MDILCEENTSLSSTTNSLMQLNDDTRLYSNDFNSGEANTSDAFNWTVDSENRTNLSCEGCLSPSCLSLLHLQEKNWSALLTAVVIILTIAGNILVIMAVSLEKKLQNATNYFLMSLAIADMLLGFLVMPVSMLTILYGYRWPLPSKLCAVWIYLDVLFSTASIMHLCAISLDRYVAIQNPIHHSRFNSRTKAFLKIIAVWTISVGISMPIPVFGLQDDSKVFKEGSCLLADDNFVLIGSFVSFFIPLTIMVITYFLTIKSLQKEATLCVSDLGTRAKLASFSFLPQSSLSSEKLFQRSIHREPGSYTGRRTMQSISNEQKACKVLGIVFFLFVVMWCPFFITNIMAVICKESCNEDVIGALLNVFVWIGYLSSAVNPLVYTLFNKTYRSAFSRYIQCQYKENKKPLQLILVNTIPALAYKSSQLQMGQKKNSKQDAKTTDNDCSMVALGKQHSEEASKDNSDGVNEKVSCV

Regarding `O=C1CC(CN2CCC(C(=O)c3ccc(F)cc3)CC2)Cc2occc21` (stereo not drawn), the Ki is 95.5 nM in experiment [1] and 1550 nM in experiment [2]. The same molecule displayed a pA2 in experiment [3] of 7.28.

With `O=C(c1ccc(F)cc1)C1CCN(CCC2CCc3occc3C2=O)CC1` (stereo not drawn), the Ki in experiment [1] was 77.6 nM; in experiment [2], 339 nM. This molecule also gave a pA2 in experiment [3] of 7.58.

In experiment [3], `O=C1c2ccoc2CCC1CCN1CCC(c2noc3cc(F)ccc23)CC1` (stereo not drawn) showed a pA2 of 9.25.

Regarding `CCOC(=O)c1oc2c(c1C)C(=O)CC(CN1CCC(c3noc4cc(F)ccc34)CC1)C2` (stereo not drawn), the Ki in experiment [1] is 8.32 nM; in experiment [2] it was above 10000 nM.

`COC(=O)c1coc2c1C(=O)CC(CN1CCC(c3noc4cc(F)ccc34)CC1)C2` (stereo not drawn): the Ki in experiment [1] was 1.55 nM; in experiment [2] it was above 10000 nM.

On to `O=C1C[C@@H](CN2CCC(c3noc4cc(F)ccc34)CC2)Cc2occc21`, for which the Ki in experiment [1] is 2.51 nM; in experiment [2] it was 245 nM.

On to `COC(=O)c1coc2c1C(=O)CC(CN1CCC(C(=O)c3ccc(F)cc3)CC1)C2` (stereo not drawn), for which the inhibitory constant (Ki) is 25.7 nM in experiment [1] and above 10000 nM in experiment [2].

Regarding `O=C1CC(CN2CCC(C(=O)c3ccc(F)cc3)CC2)Cc2oc(-c3ccccc3)cc21` (stereo not drawn), the inhibition constant (Ki) in experiment [1] was 17.4 nM; in experiment [2], above 10000 nM.

Regarding `CCOC(=O)c1oc2c(c1C)C(=O)CC(CN1CCC(C(=O)c3ccc(F)cc3)CC1)C2` (stereo not drawn), the values for the Ki in experiment [1] and in experiment [2] were 21.9 nM and above 10000 nM, respectively.

As for `O=C1CC(CN2CCC(c3noc4cc(F)ccc34)CC2)Cc2oc(-c3ccccc3)cc21` (stereo not drawn), the Ki is 6.92 nM in experiment [1] and 3310 nM in experiment [2].

Regarding `O=C1CC(CN2CCN(C(=O)c3ccc(F)cc3)CC2)Cc2occc21` (stereo not drawn), the values for the Ki in experiment [1] and in experiment [2] were 1320 nM and above 10000 nM, respectively.

Turning to `O=C1C[C@H](CN2CCC(c3noc4cc(F)ccc34)CC2)Cc2occc21`, the Ki in experiment [1] was 5.13 nM; in experiment [2] it was 372 nM.

On to `O=C1CC(CN2CCC(c3noc4cc(F)ccc34)CC2)Cc2occc21` (racemic), for which the inhibition constant (Ki) in experiment [1] is 5.5 nM; in experiment [2], 339 nM. The pA2 in experiment [3] was 7.95.

The record behind these values is ChEMBL document CHEMBL1140101, “Synthesis, binding affinity, and molecular docking analysis of new benzofuranone derivatives as potential antipsychotics” (J Med Chem, 2008).
